According to patent US20230348426A1, “OXOPYRROLIDINE FPR2 AGONISTS” (Bristol-Myers Squibb Company, priority 2020, published 2023):
pEC50: −log10 of the molar value.

What was measured:
human FPR2 = human FPR2 (Homo sapiens (Human), UniProt P25090); test: FPR2 cyclic adenosine monophosphate (cAMP) assay; format: cell-based; settings: CHO cells overexpressing human FPR2; forskolin 5 µM; inhibition of cAMP production; read-out: hFPR2 cAMP2 EC50
Outline: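 Inhibition of forskolin-driven (5 µM) cAMP, with 200 µM IBMX, measured in human FPR2-expressing CHO cells, 2,000 per well, 30 min at room temperature; compounds tested 0.020 nM to 100 µM in 1% DMSO. HTRF 665/590 ratio converted to cAMP via calibration curve, then 4-parameter fit.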

human FPR1 = human FPR1 (Homo sapiens (Human), UniProt P21462); test: FPR1 cyclic adenosine monophosphate (cAMP) assay; format: cell-based; settings: CHO cells overexpressing human FPR1; forskolin 10 µM; inhibition of cAMP production; read-out: hFPR1 cAMP EC50
Sequence of human FPR1 (P21462 whole entry): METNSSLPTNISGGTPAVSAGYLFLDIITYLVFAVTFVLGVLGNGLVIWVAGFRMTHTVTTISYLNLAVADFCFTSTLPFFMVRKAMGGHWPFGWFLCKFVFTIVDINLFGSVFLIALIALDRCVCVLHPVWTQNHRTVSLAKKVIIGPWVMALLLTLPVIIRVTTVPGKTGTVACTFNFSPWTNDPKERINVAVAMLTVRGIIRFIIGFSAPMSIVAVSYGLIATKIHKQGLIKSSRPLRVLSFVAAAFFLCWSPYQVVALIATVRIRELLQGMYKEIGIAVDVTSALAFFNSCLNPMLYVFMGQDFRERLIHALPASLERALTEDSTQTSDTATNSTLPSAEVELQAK
Outline: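 Human FPR1-expressing CHO cells were used at 4,000 per well, with compound at 0.020 nM–100 µM in 1% DMSO. Potency came from a 4-parameter logistic fit.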

Sequence of human FPR2 (P25090 whole entry): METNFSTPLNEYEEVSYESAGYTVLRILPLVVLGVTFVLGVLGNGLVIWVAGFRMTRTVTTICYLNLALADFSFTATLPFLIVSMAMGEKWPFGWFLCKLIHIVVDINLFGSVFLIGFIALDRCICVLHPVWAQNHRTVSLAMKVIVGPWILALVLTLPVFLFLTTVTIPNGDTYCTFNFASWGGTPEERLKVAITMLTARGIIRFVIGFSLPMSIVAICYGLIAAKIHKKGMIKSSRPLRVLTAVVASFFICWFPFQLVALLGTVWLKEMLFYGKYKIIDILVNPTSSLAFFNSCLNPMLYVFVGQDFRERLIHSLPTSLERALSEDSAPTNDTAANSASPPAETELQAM

Row | SMILES | pEC50 (human FPR2) | pEC50 (human FPR1)
1 | COc1ccc([C@@H]2CN(c3cccn(CCO)c3=O)C(=O)[C@H]2NC(=O)c2ccc(OC(F)(F)F)cc2)cc1 [Example 64] | 8.77 | 8.14
2 | COc1ccc([C@@H]2CN(c3c(C)ccn(CC4CC4)c3=O)C(=O)[C@H]2NC(=O)c2ccc(OC(F)F)cc2)cc1 [Example 610] | 9.00 | 9.52
3 | COCCN1CCCC(N2C[C@@H](c3c(F)cc(OC)cc3F)[C@H](NC(=O)c3ccc(OC(F)(F)F)cc3)C2=O)C1=O (some centres unmarked) [Example 484] | 8.52 | 6.38
4 | COCCn1ncc(C)c(N2C[C@@H](c3c(F)cc(OC)cc3F)[C@H](NC(=O)c3ccc(OC(F)F)cc3)C2=O)c1=O [Example 472] | 8.92 | 8.77
5 | COc1cc(F)c([C@@H]2CN(c3c(C)ccn(C(F)(F)C(=O)N4CCOCC4)c3=O)C(=O)[C@H]2NC(=O)c2ccc(OC(F)F)cc2)c(F)c1 [Example 600] | 8.11 | 6.77
6 | COCC(CO)n1cccc(N2C[C@@H](c3ccc(Cl)cc3)[C@H](NC(=O)c3ccc(OC(F)F)cc3)C2=O)c1=O (some centres unmarked) [Example 307] | 8.00 | 8.74
7 | COCC(CO)n1cccc(N2C[C@@H](c3ccc(OC)cc3)[C@H](NC(=O)c3ccc(OC(F)F)cc3)C2=O)c1=O (some centres unmarked) [Example 252] | 8.15 | 7.36
8 | COCC(CO)n1ccc(C)c(N2C[C@@H](c3ccc(OC)cc3)[C@H](NC(=O)c3ccc(OC(F)F)cc3)C2=O)c1=O (some centres unmarked) [Example 389] | > 8.30 | > 8.30
9 | COc1ccc([C@@H]2CN(c3ccnn(CCC(F)(F)F)c3=O)C(=O)[C@H]2NC(=O)c2ccc(OC(F)F)cc2)cc1 [Example 645] | 8.55 | 6.72
10 | COc1ccc([C@@H]2CN(c3cccn(CC(OC)C(F)(F)F)c3=O)C(=O)[C@H]2NC(=O)c2ccc(Cl)cc2)c(F)c1 (some centres unmarked) [Example 380] | 8.74 | 8.52
11 | CCN1CCC(N2C[C@@H](c3c(F)cc(OC)cc3F)[C@H](NC(=O)c3ccc(OC(F)F)cc3)C2=O)C1=O (some centres unmarked) [Example 390] | 8.32 | 7.12
12 | CCn1nccc(N2C[C@@H](c3ccc(OC)cc3)[C@H](NC(=O)c3ccc(OC(F)F)cc3)C2=O)c1=O [Example 674] | 8.17 | 7.64
13 | COc1cc(F)c([C@@H]2CN(c3cccn(CC(C)(CO)CO)c3=O)C(=O)[C@H]2NC(=O)c2ccc(OC(F)F)cc2)c(F)c1 [Example 179] | 8.33 | 7.04
14 | COCC(CO)n1cccc(N2C[C@@H](c3c(F)cc(OC)cc3F)[C@H](NC(=O)c3ccc(OC(F)F)cc3)C2=O)c1=O (some centres unmarked) [Example 142] | 8.44 | 7.06
15 | CCn1cccc(N2C(=O)[C@@H](NC(=O)c3ccc(OC(F)(F)F)cc3)[C@H](c3c(F)cc(OC)cc3F)[C@H]2C)c1=O [Example 242] | 8.17 | 6.96
16 | COCC(C(=O)N1CCOCC1)n1ccc(C)c(N2C[C@@H](c3c(F)cc(OC)cc3F)[C@H](NC(=O)c3ccc(OC(F)F)cc3)C2=O)c1=O (some centres unmarked) [Example 131] | 8.47 | 9.10
17 | CCn1cccc(N2C[C@@H](c3ccc(OC)cc3)[C@H](NC(=O)c3ccc(OC(F)(F)F)cc3)C2=O)c1=O [Example 128] | 8.48 | 8.20
18 | COCCn1ccc(C)c(N2C[C@@H](c3ccc(OC)cc3F)[C@H](NC(=O)c3ccc(Cl)cc3)C2=O)c1=O [Example 635] | 8.43 | 8.20
19 | CCn1cccc(N2C(=O)[C@@H](NC(=O)c3ccc(OC(F)F)cc3)[C@H](c3c(F)cc(OC)cc3F)[C@H]2C)c1=O [Example 255] | 8.15 | 7.28
20 | COc1cc(C2CC2)nc(N2C(=O)[C@@H](NC(=O)c3ccc(OC(F)(F)F)cc3)[C@H](c3c(F)cc(OC)cc3F)[C@@H]2C)c1 [Example 575] | 6.32 | < 5.30
21 | COc1cc(F)c([C@@H]2CN(Cc3ccccc3P(C)(C)=O)C(=O)[C@H]2NC(=O)c2ccc(OC(F)F)cc2)c(F)c1 [Example 18] | 7.43 | 6.70
22 | COc1ccc([C@@H]2CN(c3c(C)ccn(CC(F)F)c3=O)C(=O)[C@H]2NC(=O)c2ccc(Cl)cc2)cc1 [Example 366] | 8.52 | 8.52
23 | COc1cc(F)c([C@@H]2CN(c3cccn(CCN4CCOCC4)c3=O)C(=O)[C@H]2NC(=O)c2ccc(OC(F)F)cc2)c(F)c1 [Example 99] | 8.57 | 6.48
24 | COCC(CO)n1ccc(C)c(N2C[C@@H](c3c(F)cc(OC)cc3F)[C@H](NC(=O)c3ccc(OC(F)(F)F)cc3)C2=O)c1=O (some centres unmarked) [Example 427] | 8.36 | 8.70
25 | COc1cc(F)c([C@@H]2CN(c3cccc(C4CCCN(CCO)C4)n3)C(=O)[C@H]2NC(=O)c2ccc(OC(F)F)cc2)c(F)c1 (some centres unmarked) [Example 501] | 8.80 | 5.60
26 | COCCn1cccc(N2C[C@@H](c3ccc(OC)cc3F)[C@H](NC(=O)c3ccc(OC(F)(F)F)cc3)C2=O)c1=O [Example 56] | 8.85 | 8.40
27 | O=C(N[C@@H]1C(=O)N(c2cccn(CCC(F)(F)F)c2=O)C[C@H]1c1ccc(Cl)cc1)c1ccc(OC(F)F)cc1 [Example 72] | 8.72 | 8.24
28 | COc1cc(F)c([C@H]2[C@H](NC(=O)c3ccc(OC(F)F)cc3)C(=O)N(c3cccc(N4CC[C@H](O)C4)n3)[C@H]2C)c(F)c1 [Example 568] | 8.55 | 6.36

Continued, values first:

Row | pEC50 (human FPR2) | pEC50 (human FPR1) | SMILES
29 | 8.37 | 5.64 | COc1cc(F)c([C@@H]2CN(c3nccc(NCC(C)(C)O)c3C(F)(F)F)C(=O)[C@H]2NC(=O)c2ccc(Cl)cc2)c(F)c1 [Example 166]
30 | 8.28 | 6.64 | COc1cc(F)c([C@@H]2CN(c3cccn(CC(O)CO)c3=O)C(=O)[C@H]2NC(=O)c2ccc(Cl)cc2)c(F)c1 (some centres unmarked) [Example 677]
31 | 8.11 | 7.85 | COc1cc(F)c([C@@H]2CN(c3cccn(CC4CC4)c3=O)C(=O)[C@H]2NC(=O)c2ccc(OC(F)(F)F)cc2)c(F)c1 [Example 272]
32 | 7.90 | 6.63 | CCn1ccc(F)c(N2C[C@@H](c3c(F)cc(OC)cc3F)[C@H](NC(=O)c3ccc(OC(F)F)cc3)C2=O)c1=O [Example 373]
33 | 8.40 | < 5.30 | COc1cc(F)c([C@@H]2CN(c3cncn(C4CCN(C)C4)c3=O)C(=O)[C@H]2NC(=O)c2ccc(Cl)cc2)c(F)c1 (some centres unmarked) [Example 713]
34 | 8.62 | 8.23 | COc1cc(F)c([C@@H]2CN(c3c(C)ccn(CCC(F)(F)F)c3=O)C(=O)[C@H]2NC(=O)c2ccc(Cl)cc2)c(F)c1 [Example 611]
35 | 8.85 | 8.82 | COc1cc(F)c([C@@H]2CN(c3c(C)ccn(CCS(C)(=O)=O)c3=O)C(=O)[C@H]2NC(=O)c2ccc(OC(F)(F)F)cc2)c(F)c1 [Example 576]
36 | 8.20 | < 5.30 | COc1cc(N2CCN(C)CC2)nc(N2C[C@@H](c3c(F)cc(OC)cc3F)[C@H](NC(=O)c3ccc(Cl)cc3)C2=O)c1 [Example 233]
37 | 7.57 | 6.24 | COc1cc(F)c([C@@H]2CN(c3ncccc3CO)C(=O)[C@H]2NC(=O)c2ccc(OC(F)(F)F)cc2)c(F)c1 [Example 27]
38 | 8.77 | 8.52 | COc1cc(F)c([C@@H]2CN(c3c(C)ccn(CC(C)O)c3=O)C(=O)[C@H]2NC(=O)c2ccc(OC(F)(F)F)cc2)c(F)c1 (some centres unmarked) [Example 361]
39 | 8.00 | < 5.00 | COc1cc(F)c([C@@H]2CN(c3nc(N4C[C@@H](C)N(C)[C@@H](C)C4)ccc3C#N)C(=O)[C@H]2NC(=O)c2ccc(Cl)cc2)c(F)c1 [Example 318]
40 | 8.18 | 6.19 | COc1cc(F)c([C@@H]2CN(c3nccc(NCC(C)(C)O)c3C(F)(F)F)C(=O)[C@H]2NC(=O)c2ccc(OC(F)F)cc2)c(F)c1 [Example 239]
41 | 7.92 | 5.77 | COc1cc(F)c([C@@H]2CN(c3nccc(NC4COC4)c3C(F)(F)F)C(=O)[C@H]2NC(=O)c2ccc(Cl)cc2)c(F)c1 [Example 327]
42 | 8.68 | 8.40 | COc1cc(F)c([C@@H]2CN(c3ccnn(CC(F)F)c3=O)C(=O)[C@H]2NC(=O)c2ccc(OC(F)F)cc2)c(F)c1 [Example 474]
43 | 8.02 | 8.40 | COCC(CO)n1nccc(N2C[C@@H](c3c(F)cc(OC)cc3F)[C@H](NC(=O)c3ccc(OC(F)(F)F)cc3)C2=O)c1=O (some centres unmarked) [Example 452]
44 | 8.14 | 7.29 | COc1cc(F)c([C@@H]2CN(c3nccc(N4CCOCC4)c3C(F)(F)F)C(=O)[C@H]2NC(=O)c2ccc(Cl)cc2)c(F)c1 [Example 420]
45 | 9.00 | 7.92 | COc1cc(F)c([C@@H]2CN(c3c(C)ccn(C4CCOC4)c3=O)C(=O)[C@H]2NC(=O)c2ccc(Cl)cc2)c(F)c1 (some centres unmarked) [Example 654]
46 | 8.00 | 7.02 | COc1cc(F)c([C@@H]2CN(c3nc(C4CCOCC4)ccc3F)C(=O)[C@H]2NC(=O)c2ccc(OC(F)F)cc2)c(F)c1 [Example 316]
47 | 9.15 | 6.14 | COc1cc(F)c([C@@H]2CN(c3nc(N4C[C@@H](C)N(C)[C@@H](C)C4)ccc3F)C(=O)[C@H]2NC(=O)c2ccc(OC(F)F)cc2)c(F)c1 [Example 42]
48 | 8.35 | 5.62 | COc1cc(F)c([C@@H]2CN(c3cncn(CC4CCOCC4)c3=O)C(=O)[C@H]2NC(=O)c2ccc(Cl)cc2)c(F)c1 [Example 547]
49 | 8.16 | 6.60 | COc1cc(F)c([C@@H]2CN(c3nc(C)ccc3C(F)(F)F)C(=O)[C@H]2NC(=O)c2ccc(OC(F)F)cc2)c(F)c1 [Example 247]
